Results published in ChEMBL document CHEMBL5244214, “An update on small molecule strategies targeting leishmaniasis” (Eur J Med Chem, 2018).
pIC50: −log10 of the molar value.

How the values were obtained:
Leishmania major [1] = assay: Antileishmanial activity against Leishmania major promastigotes assessed as parasite growth inhibition at 0.1 uM incubated for 72 hrs by MTT assay; type: functional; conditions: read-out: GI
Leishmania major [2] = assay: Antileishmanial activity against Leishmania major promastigotes assessed as parasite growth inhibition at 1 uM incubated for 72 hrs by MTT assay; type: functional; conditions: read-out: GI
Leishmania major [3] = assay: Antileishmanial activity against Leishmania major promastigotes assessed as parasite growth inhibition at 10 uM incubated for 72 hrs by MTT assay; type: functional; conditions: read-out: GI
Leishmania major [4] = assay: Antileishmanial activity against Leishmania major promastigotes assessed as parasite growth inhibition at 100 uM incubated for 72 hrs by MTT assay; type: functional; conditions: read-out: GI
Leishmania major [5] = assay: Antileishmanial activity against Leishmania major assessed as inhibition of parasite growth; type: functional, organism-based
Leishmania donovani = assay: Antileishmanial activity against Leishmania donovani promastigotes assessed as parasite growth inhibition; type: functional, organism-based
[6] = Cytotoxicity against mouse peritoneal macrophages assessed as reduction in cell viability incubated for 24 hrs by MTT assay; type: toxicity, cell-based, Peritoneal macrophage
Leishmania major [7] = assay: Antileishmanial activity against Leishmania major MRHO/IR/75/E promastigotes assessed as parasite growth inhibition incubated for 24 hrs by MTT assay; type: functional, organism-based
Leishmania aethiopica [8] = assay: Antileishmanial activity against Leishmania aethiopica axenic amastigotes assessed as parasite growth inhibition incubated for 72 hrs by resazurin staining based analysis; type: functional, organism-based
Leishmania aethiopica [9] = assay: Antileishmanial activity against Leishmania aethiopica promastigotes assessed as parasite growth inhibition incubated for 24 hrs by alamar blue staining based analysis; type: functional, organism-based

SMILES: C[C@@H]1[C@H](O)[C@@H](C)/C=C/C=C/C=C/C=C/C=C/C=C/C=C/[C@H](O[C@@H]2O[C@H](C)[C@@H](O)[C@H](N)[C@@H]2O)C[C@@H]2O[C@](O)(C[C@@H](O)C[C@@H](O)[C@H](O)CC[C@@H](O)C[C@@H](O)CC(=O)O[C@H]1C)C[C@H](O)[C@H]2C(=O)O [AMPHOTERICIN B]
- inhibition of growth at 0.1 µM (Leishmania major [1]): 69.8%
- inhibition of growth at 1 µM (Leishmania major [2]): 74.8%
- inhibition of growth at 10 µM (Leishmania major [3]): 76.3%
- inhibition of growth at 100 µM (Leishmania major [4]): 79.8%

SMILES: O=[N+]([O-])c1ccc(-c2nnc(NCCCO)s2)s1
- pIC50 (Leishmania major [5]): 5.52

SMILES: Cc1cccc2cc(C(c3c(O)c4ccccc4oc3=O)N3CCN(C)CC3)c(Cl)nc12 (stereo unspecified)
- pIC50 (Leishmania donovani): 5.16

SMILES: CN1CCN(C(c2c(O)c3ccccc3oc2=O)c2c[nH]c3ccccc23)CC1 (stereo unspecified)
- pIC50 (Leishmania donovani): 4.88

SMILES: CCCNC(=O)CSc1nnc(-c2ccc([N+](=O)[O-])o2)s1
- IC50 at 24 h [6]: 59.7 µM
- pIC50 (Leishmania major [7]): 4.71

SMILES: O=c1oc2ccccc2c(O)c1C(c1ccoc1)N1CCOCC1 (stereo unspecified)
- pIC50 (Leishmania donovani): 4.83

SMILES: COc1ccc(NC(=O)CCC(=O)O)c([N+](=O)[O-])c1
- inhibition of growth at 0.1 µM (Leishmania major [1]): 59.3%
- inhibition of growth at 1 µM (Leishmania major [2]): 45.5%
- inhibition of growth at 10 µM (Leishmania major [3]): 50.4%
- inhibition of growth at 100 µM (Leishmania major [4]): 56.8%

SMILES: O=C(CSc1nnc(-c2ccc([N+](=O)[O-])o2)s1)NCc1ccccc1
- IC50 at 24 h [6]: 86.9 µM
- pIC50 (Leishmania major [7]): 4.33

SMILES: COc1nc(OC)nc(N(CC(=O)[C@@H](N)C(C)C)CC(=O)[C@@H](N)C(C)C)n1
- pIC50 (Leishmania aethiopica [8]): 6.66
- pIC50 (Leishmania aethiopica [9]): 5.85

SMILES: COCCCNc1nnc(-c2ccc([N+](=O)[O-])s2)s1
- pIC50 (Leishmania major [5]): 5.52

SMILES: COc1ccc(CCNC(=O)CSc2nnc(-c3ccc([N+](=O)[O-])o3)s2)cc1OC
- IC50 at 24 h [6]: 56 µM
- pIC50 (Leishmania major [7]): 4.72
